In patent US11530206B2, “Phenylaminopyrimidine amide autophagy inhibitors and methods of use thereof” (Deciphera Pharmaceuticals, LLC, priority 2019, dated 2022) one finds IC50 data, which are given here for 6 molecules.

Experiment [1] addresses T1, ULK1 kinase (Homo sapiens, UniProt O75385).
T1 construct: purchased Eurofins 14-959
T1 sequence (O75385 with tags, fused parts or gaps): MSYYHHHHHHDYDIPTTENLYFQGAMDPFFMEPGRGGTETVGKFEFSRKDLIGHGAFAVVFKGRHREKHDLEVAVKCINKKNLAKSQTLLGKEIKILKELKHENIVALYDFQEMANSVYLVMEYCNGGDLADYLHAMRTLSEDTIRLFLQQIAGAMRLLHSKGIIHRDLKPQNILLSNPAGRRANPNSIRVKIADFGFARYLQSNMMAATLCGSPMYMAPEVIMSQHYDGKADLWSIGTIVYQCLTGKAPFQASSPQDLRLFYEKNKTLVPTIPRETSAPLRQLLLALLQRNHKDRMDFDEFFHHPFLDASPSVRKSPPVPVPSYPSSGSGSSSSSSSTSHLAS
In words: Biochemical assay for ULK1.2 (coupled pyruvate kinase/lactate dehydrogenase assay). To be noted: 19 nM ULK1 (residues 1-314, His tag), myelin basic protein, 1 mM ATP. As to the method: Biochemical Assay for ULK1.2 (SEQ. ID NO: 1)
Inhibition of ULK1 was measured by adding serial diluted test compound (final assay concentration of 1% DMSO). A decrease in absorption at 340 nm was monitored continuously for 6 hours at 30° C. on a multi-mode microplate reader (BioTek). The reaction rate was calculated using the 2-3 h time frame. The reaction rate at each concentration of compound was converted to percent inhibition using controls (i.e. reaction with no test compound and reaction with a known inhibitor) and IC50 values were calculated by fitting a four-parameter sigmoidal curve to the data using Prism (GraphPad software).

Another experiment addresses T2, ULK2 kinase (Homo sapiens, UniProt Q8IYT8).
T2 construct: purchased Eurofins 14-772
In words: Biochemical assay for ULK2 (coupled pyruvate kinase/lactate dehydrogenase assay). As to conditions: 9.7 nM ULK2 (residues 1-306, GST and His tag), myelin basic protein, 1 mM ATP; read-out: ULK2.2. As to the method:
Example 132. Biochemical Assay for ULK2 (SEQ. ID NO: 3)
Activity of ULK2 kinase was determined spectroscopically using a coupled pyruvate kinase/lactate dehydrogenase assay that continuously monitors the ATP hydrolysis-dependent oxidation of NADH (e.g., Schindler et al. Science (2000) 289: 1938-1942). Assays were conducted in 384-well plates (100 uL final volume) using 9.7 nM ULK2 (Eurofins CAT #14-772), 0.25 mg/mL myelin basic protein, 1.5 units pyruvate kinase, 2.1 units lactate dehydrogenase, 1 mM phosphoenol pyruvate, 0.28 mM NADH and 1 mM ATP in assay buffer (100 mM Tris, pH 7.5, 15 mM MgCl2, 0.5 mM DTT, 0.1% octyl-glucoside, 0.002% (w/v) BSA, and 0.002% Triton X-100). Inhibition of ULK2 was measured by adding serial diluted test compound (final assay concentration of 1% DMSO). A decrease in absorption at 340 nm was monitored continuously for 6 hours at 30° C. on a multi-mode microplate reader (BioTek). The reaction rate was calculated using the 2-3 h time frame. The reaction rate at each concentration of compound was converted to percent inhibition using controls (i.e. reaction with no test compound and reaction with a known inhibitor) and IC50 values were calculated by fitting a four-parameter sigmoidal curve to the data using Prism (GraphPad software).

For experiment [2], the system named is ULK kinase. In words: pATG13 levels of mutant KRas A549 cells after treatment with ULK inhibitors in combination with trametinib (ELISA). As to conditions: A549 (KRAS mutant) lung cancer cells, 250 nM trametinib, overnight, pS318-ATG13. Format: cell-based, human. A digest of the protocol: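 Lysates with phosphatase/protease inhibitors assayed by pATG13 ELISA, A450 minus A540 background and blank-corrected. % ATG13 phosphorylation versus DMSO controls fitted to IC50.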

For experiment [3], the system named is ULK kinase. The experiment is described as follows: pATG13 levels of mutant KRas MiaPaCa-2 cells after treatment with ULK inhibitors in combination with trametinib (ELISA). The experiment is classed as cell-based, human. As to conditions: MiaPaCa-2 pancreatic cancer cells, 250 nM trametinib, overnight, pS318-ATG13. A digest of the protocol: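 MiaPaCa-2 cells in DMEM with 10% FBS and 2.5% horse serum were pretreated with trametinib or DMSO, then given a test-compound dose response overnight at 37° C. Lysates were assayed for phospho-ATG13 by ELISA (A450 minus A540 background, blank-corrected). % phosphorylation was calculated relative to controls and fitted to IC50.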

Experiment [4] concerns ULK kinase. The experiment is described as follows: pATG13 levels of mutant KRas HCT-116 cells after treatment with ULK inhibitors in combination with trametinib (ELISA). Format: cell-based, human. To be noted: HCT-116 colon cancer cells, 250 nM trametinib, overnight, pS318-ATG13. The protocol: The following day, 10 μL of media containing trametinib or DMSO as a control was added to wells. […] A dose response of a test compound (0.6 μL per well) was added. DMSO (0.6 μL) was added to control wells. The plate was briefly shaken to mix wells and then incubated at 37° C. overnight. The next day, the media was aspirated and cells were washed with Dulbecco's Phosphate Buffered Saline (Gibco). Cells were lysed using MPER lysis buffer (Pierce, Rockford, Ill.) containing Halt Phosphatase and Protease Inhibitors (Pierce, Rockford, Ill.) and Phosphatase inhibitor cocktail 2 (Sigma, St. Louis, Mo.) at 4° C. for 10 minutes with shaking.
(§1) Plate wells were washed with ELISA wash buffer. Cell lysate was added to wells and incubated at room temperature for 2 hours. Plate wells were washed with ELISA wash buffer. […] Plate wells were washed with ELISA wash buffer. […] Plate wells were washed with ELISA wash buffer. […] The reaction was stopped with 2N Sulfuric Acid. The plate was analyzed at on a plate reader measuring absorbance at 450 nm and 540 nm (background). Signal was calculated by first subtracting the background absorbance at 540 nm from the absorbance at 450 nm for each well. Next, the background corrected absorbance at 450 nm from blank wells was subtracted from test wells. Data was compared to control wells to determine % ATG13 phosphorylation. GraphPad Prism was used to calculate IC50 values.

Experiment [5] deals with ULK kinase. In words: pATG13 levels of mutant BRAF A375 cells after treatment with ULK inhibitors in combination with trametinib (ELISA). To be noted: A375 malignant melanoma cells (mutant BRAF), 250 nM trametinib, overnight, pS318-ATG13. Format: cell-based, human. As to the method: (§2) A375 human malignant melanoma cancer cells (20000 cells/well) were added to a 96-well tissue-culture treated plate in 100 μL of pre-warmed DMEM medium supplemented with 10% characterized fetal bovine serum (Invitrogen, Carlsbad, Calif.), 100 units/mL penicillin G, and 100 μg/mL streptomycin and allowed to grow overnight at 37° C., 5% CO2, and 95% humidity. The following day, 100 μL of media containing trametinib or DMSO as a control was added to wells. […] A dose response of a test compound (0.5 μL per well) was added. DMSO (0.5 μL) was added to control wells. The plate was briefly shaken to mix wells and then incubated at 37° C. overnight. The next day, the media was aspirated and cells were washed with Dulbecco's Phosphate Buffered Saline (Gibco). Cells were lysed using MPER lysis buffer (Pierce, Rockford, Ill.) containing Halt Phosphatase and Protease Inhibitors (Pierce, Rockford, Ill.) and Phosphatase inhibitor cocktail 2 (Sigma, St. Louis, Mo.) at 4° C. for 10 minutes with shaking.
as §1

The target of experiment [6] is T3, ULK1 kinase (Homo sapiens, UniProt O75385, E37A/K38A).
T3 construct: purchased Beryllium
T3 sequence (O75385 1-283 E37A/K38A): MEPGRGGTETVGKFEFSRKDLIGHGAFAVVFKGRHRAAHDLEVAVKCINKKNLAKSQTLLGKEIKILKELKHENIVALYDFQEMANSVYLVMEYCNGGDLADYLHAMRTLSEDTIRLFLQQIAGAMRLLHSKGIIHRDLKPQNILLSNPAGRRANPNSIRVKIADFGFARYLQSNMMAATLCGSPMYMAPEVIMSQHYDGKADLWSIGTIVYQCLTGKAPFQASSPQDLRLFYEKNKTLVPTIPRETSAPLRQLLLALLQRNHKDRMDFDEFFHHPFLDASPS
In words: Biochemical assay for ULK1.3 (coupled pyruvate kinase/lactate dehydrogenase assay, peptide substrate). As to conditions: 0.1 nM ULK1 (residues 1-283), 1 mM ATP. A digest of the protocol:
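ULK1.3 activity was followed by continuous decrease in 340 nm absorbance over 6 h at 30 °C with 1% DMSO final. Rates were taken from the 2–3 h window and converted to percent inhibition against no-compound and known-inhibitor controls. IC50 values came from curve fitting.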

Experiment [7] concerns ULK kinase. The experiment is described as follows: pATG13 levels of mutant HRas T24 cells after treatment with ULK inhibitors in combination with trametinib (ELISA). The experiment is classed as cell-based, human. To be noted: T24 urinary bladder cancer cells (mutant HRas), 250 nM trametinib, overnight, pS318-ATG13. As to the method:
as §2, with “T24” for “A375”, “urinary bladder” for “malignant melanoma”, “(25000” for “(20000”
as §1

A further experiment has as its target T4, LRRK2 kinase (Homo sapiens, UniProt Q5S007).
T4 construct: purchased Thermo Fisher
The experiment is described as follows: Biochemical assay for LRRK2 (coupled pyruvate kinase/lactate dehydrogenase assay). As to conditions: 26.4 nM LRRK2 (residues 970-2528), peptide substrate, 1 mM ATP. In a few lines: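 Recombinant LRRK2 (26.4 nM) with 0.1 mM peptide substrate and 1 mM ATP in Tris pH 7.5/MgCl2 buffer; ADP production coupled via PK/LDH to NADH oxidation, A340 read continuously 6 h at 30 °C. Rates from 2–3 h window converted to % inhibition versus no-compound and reference-inhibitor controls; IC50 fitted.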

T2 sequence (Q8IYT8 with tags, fused parts or gaps): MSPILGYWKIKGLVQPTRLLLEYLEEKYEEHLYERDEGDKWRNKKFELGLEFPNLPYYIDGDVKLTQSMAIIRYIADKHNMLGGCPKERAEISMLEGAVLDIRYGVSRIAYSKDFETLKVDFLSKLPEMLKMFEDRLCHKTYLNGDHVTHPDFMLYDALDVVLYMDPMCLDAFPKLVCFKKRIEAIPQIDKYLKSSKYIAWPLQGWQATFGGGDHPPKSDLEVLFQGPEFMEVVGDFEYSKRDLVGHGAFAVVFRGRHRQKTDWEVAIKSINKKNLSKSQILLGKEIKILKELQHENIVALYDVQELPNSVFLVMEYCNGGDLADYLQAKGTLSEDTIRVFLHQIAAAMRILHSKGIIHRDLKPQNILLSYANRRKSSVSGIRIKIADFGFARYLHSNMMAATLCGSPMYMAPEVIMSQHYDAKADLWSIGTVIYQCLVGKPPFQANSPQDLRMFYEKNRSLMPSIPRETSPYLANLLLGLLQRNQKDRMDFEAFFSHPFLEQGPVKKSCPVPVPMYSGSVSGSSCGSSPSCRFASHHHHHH
T4 sequence (Q5S007 with tags, fused parts or gaps): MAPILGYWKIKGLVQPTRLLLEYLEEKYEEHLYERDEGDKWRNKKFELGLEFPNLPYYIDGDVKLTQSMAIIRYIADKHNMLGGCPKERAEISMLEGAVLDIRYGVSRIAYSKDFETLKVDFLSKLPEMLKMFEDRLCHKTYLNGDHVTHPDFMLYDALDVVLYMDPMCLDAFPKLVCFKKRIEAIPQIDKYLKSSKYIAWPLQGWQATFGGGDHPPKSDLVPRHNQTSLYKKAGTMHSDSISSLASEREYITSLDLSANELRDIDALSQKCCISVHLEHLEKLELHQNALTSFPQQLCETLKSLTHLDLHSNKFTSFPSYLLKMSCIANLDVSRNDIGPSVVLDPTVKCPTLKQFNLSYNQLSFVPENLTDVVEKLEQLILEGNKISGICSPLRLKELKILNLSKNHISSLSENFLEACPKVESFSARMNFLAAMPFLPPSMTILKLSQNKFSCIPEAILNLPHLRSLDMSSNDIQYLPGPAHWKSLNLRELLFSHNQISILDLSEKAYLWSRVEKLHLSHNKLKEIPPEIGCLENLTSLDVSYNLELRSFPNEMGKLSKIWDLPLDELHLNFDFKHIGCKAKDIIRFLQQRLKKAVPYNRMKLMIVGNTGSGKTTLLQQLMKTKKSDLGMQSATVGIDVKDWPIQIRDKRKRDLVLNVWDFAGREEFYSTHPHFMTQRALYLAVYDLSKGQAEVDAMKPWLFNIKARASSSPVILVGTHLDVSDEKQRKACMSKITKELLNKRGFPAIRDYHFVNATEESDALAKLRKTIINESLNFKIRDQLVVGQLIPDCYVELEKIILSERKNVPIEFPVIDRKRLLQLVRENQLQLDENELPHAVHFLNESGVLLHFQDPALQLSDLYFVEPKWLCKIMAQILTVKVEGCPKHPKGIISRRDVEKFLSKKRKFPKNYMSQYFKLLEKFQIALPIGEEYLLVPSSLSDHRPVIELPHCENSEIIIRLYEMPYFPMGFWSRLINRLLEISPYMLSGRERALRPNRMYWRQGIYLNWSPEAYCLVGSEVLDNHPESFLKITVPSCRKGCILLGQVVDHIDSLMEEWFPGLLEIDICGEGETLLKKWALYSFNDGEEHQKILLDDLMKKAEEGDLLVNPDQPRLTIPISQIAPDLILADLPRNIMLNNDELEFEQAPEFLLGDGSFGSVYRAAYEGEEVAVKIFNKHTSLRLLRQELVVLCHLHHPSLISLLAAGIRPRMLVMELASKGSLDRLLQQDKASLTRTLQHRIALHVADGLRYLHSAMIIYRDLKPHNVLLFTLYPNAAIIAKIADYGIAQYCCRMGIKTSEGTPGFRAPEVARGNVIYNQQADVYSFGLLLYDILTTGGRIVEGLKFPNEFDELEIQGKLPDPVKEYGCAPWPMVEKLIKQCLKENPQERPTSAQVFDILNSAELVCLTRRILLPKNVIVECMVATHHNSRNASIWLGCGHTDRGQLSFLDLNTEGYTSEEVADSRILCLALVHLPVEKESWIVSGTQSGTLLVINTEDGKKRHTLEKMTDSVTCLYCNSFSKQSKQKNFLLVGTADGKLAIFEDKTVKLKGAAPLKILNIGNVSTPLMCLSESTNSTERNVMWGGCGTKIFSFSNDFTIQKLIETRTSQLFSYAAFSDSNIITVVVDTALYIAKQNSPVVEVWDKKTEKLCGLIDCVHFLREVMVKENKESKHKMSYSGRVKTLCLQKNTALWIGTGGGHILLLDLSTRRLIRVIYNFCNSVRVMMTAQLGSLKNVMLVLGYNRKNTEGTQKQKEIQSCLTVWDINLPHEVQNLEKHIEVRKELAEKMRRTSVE

With `CCc1cc(N2CCN(C)CC2)ccc1Nc1ncc(C(F)(F)F)c(NCCCN2CCCCC2=O)n1` [Example 11], the IC50 against ULK1 kinase [1] is 1 to 25 nM; at ULK2 kinase, 1 to 25 nM; with ULK kinase [2], 100 to 300 nM; in the experiment on ULK kinase [3], 10 to 100 nM; in the experiment with ULK kinase [4], 10 to 100 nM; in the experiment with ULK kinase [5] it was 10 to 100 nM.
On to `CCc1cc(N2CCN(C)CC2)ccc1Nc1ncc(Br)c(NCCCN2CCCCC2=O)n1` [Example 23, 1-(3-((5-bromo-2-((2-ethyl-4-(4-methylpiperazin-1-yl)phenyl)amino)pyrimidin-4-yl)amino)propyl)piperidin-2-one], for which the IC50 on ULK1 kinase [1] lay within 25 to 100 nM; at ULK2 kinase it was 100 to 500 nM; in the experiment on ULK kinase [2] it was 10 to 100 nM; in the experiment on ULK kinase [3] it was 10 to 100 nM; in the experiment on ULK kinase [4], 10 to 100 nM; with ULK kinase [5] it was 10 to 100 nM.
`O=C1CCCCN1CCCNc1nc(Nc2ccc(N3CCNCC3)cc2C2CC2)ncc1C(F)(F)F` [Example 34, 1-(3-((2-((2-cyclopropyl-4-(piperazin-1-yl)phenyl)amino)-5-(trifluoromethyl)pyrimidin-4-yl)amino)propyl)piperidin-2-one]: the IC50 against ULK1 kinase [6] fell in the range of 1 to 25 nM; in the experiment with ULK kinase [2] it was 10 to 100 nM; in the experiment on ULK kinase [3], 10 to 100 nM; in the experiment on ULK kinase [4], 10 to 100 nM; in the experiment with ULK kinase [7] it was 100 to 300 nM.
As to `CN1CCN(c2ccc(Nc3ncc(C(F)(F)F)c(NCCCN4CCOCC4=O)n3)c(C3CC3)c2)CC1` [Example 47], the IC50 lay within 25 to 100 nM on ULK1 kinase [6]; 100 to 300 nM in the experiment on ULK kinase [2]; 300 to 600 nM in the experiment with ULK kinase [3]; 100 to 300 nM in the experiment on ULK kinase [4]; 300 to 600 nM in the experiment on ULK kinase [5]; 100 to 300 nM against LRRK2 kinase.
For the molecule `CCN1CCN(c2ccc(Nc3ncc(C(F)(F)F)c(NCCCN4CCCOCC4=O)n3)c(C(C)C)c2)CC1` [Example 60], the IC50 against ULK1 kinase [1] was in the range of 1 to 25 nM; in the experiment with ULK kinase [2] it was 100 to 300 nM; in the experiment with ULK kinase [3] it was 100 to 300 nM; in the experiment with ULK kinase [4], 10 to 100 nM; with ULK kinase [5] it was 300 to 600 nM.
As to `CCN1CCN(c2ccc(Nc3ncc(C(F)(F)F)c(NCCCN4CCOCCC4=O)n3)c(C(C)C)c2)CC1` [Example 73], the IC50 against ULK1 kinase [1] lay within 1 to 25 nM; at ULK2 kinase, 100 to 500 nM; with ULK kinase [2], 100 to 300 nM; in the experiment on ULK kinase [3], 100 to 300 nM; in the experiment on ULK kinase [4] it was 10 to 100 nM; in the experiment on ULK kinase [5], 10 to 100 nM.
